From patent US8633245B2, “PAI-1 inhibitor” (Institute of Medicinal Molecular Design, Inc., priority 2008, dated 2014) come the findings set out here.

For this experiment, the target named is T1, recombinant human PAI-1 (Homo sapiens, UniProt P05121).
T1 construct: purchased Molecular Innovations, Inc
In words: Test Example 1: human PAI-1 inhibitory activity (tPA fluorogenic substrate, pH 7.5 Tris buffer). The format is biochemical. The following applies: Tris buffer. As to the method:
50 mM Tris, 150 mM NaCl, 10 μg/ml BSA, 0.01% Tween80 (SIGMA-ALDRICH Corporation)

T1 sequence (P05121 24-402): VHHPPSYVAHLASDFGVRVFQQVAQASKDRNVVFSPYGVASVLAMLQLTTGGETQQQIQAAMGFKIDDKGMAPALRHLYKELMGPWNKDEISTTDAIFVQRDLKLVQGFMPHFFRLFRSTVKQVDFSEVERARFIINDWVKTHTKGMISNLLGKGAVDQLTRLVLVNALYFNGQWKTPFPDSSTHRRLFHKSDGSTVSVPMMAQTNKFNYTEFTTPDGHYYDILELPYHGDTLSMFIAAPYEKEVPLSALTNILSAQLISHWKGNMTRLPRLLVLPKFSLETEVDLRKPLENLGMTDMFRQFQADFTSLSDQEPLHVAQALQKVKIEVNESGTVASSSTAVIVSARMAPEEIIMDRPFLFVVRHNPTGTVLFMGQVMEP

For the molecule `CC(C)(C)c1ccc(COc2c(Cl)cc(-c3ccc(OC(F)(F)F)cc3)cc2C=CC(=O)O)cc1` [Compound 91], the “Inhibition Rate of PAI-1 Activity (%)” value runs as follows: (Compound Concentration 5 μM) 30%; (Compound Concentration 10 μM) 67%; (Compound Concentration 25 μM) 96%.

On to `CC(C)(C)c1ccc(COc2c(Cl)cc(-c3ccc(OC(F)(F)F)cc3)cc2CCC(=O)O)cc1` [Compound 92], for which the “Inhibition Rate of PAI-1 Activity (%)” value was found to be 25% (Compound Concentration 5 μM), 63% (Compound Concentration 10 μM) and 97% (Compound Concentration 25 μM).

In the case of `CC(C)(C)c1ccc(Oc2cccc(-c3ccc(OC(F)(F)F)cc3)c2C=CC(=O)O)cc1` [Compound 93], the “Inhibition Rate of PAI-1 Activity (%)” value is recorded as 51% (Compound Concentration 5 μM), 87% (Compound Concentration 10 μM) and 94% (Compound Concentration 25 μM).

With `CC(C)(C)c1ccc(COc2ccc(Oc3ccc(OC(F)(F)F)cc3)cc2C=CC(=O)O)cc1` [Compound 95], the “Inhibition Rate of PAI-1 Activity (%)” value was 28% (Compound Concentration 5 μM), 77% (Compound Concentration 10 μM) and 96% (Compound Concentration 25 μM).

Regarding `O=C(O)C=Cc1c(Oc2ccc(OC(F)(F)F)cc2)cccc1Oc1ccc(OC(F)(F)F)cc1` [Compound 97], the “Inhibition Rate of PAI-1 Activity (%)” value reads like this: (Compound Concentration 5 μM) 30%; (Compound Concentration 10 μM) 40%; (Compound Concentration 25 μM) 53%.

As for `CC(C)(C)c1ccc(Oc2ccc(Oc3ccc(OC(F)(F)F)cc3)cc2C=CC(=O)O)cc1` [Compound 99], the “Inhibition Rate of PAI-1 Activity (%)” value came out at 31% (Compound Concentration 5 μM), 66% (Compound Concentration 10 μM) and 99% (Compound Concentration 25 μM).

For the molecule `O=C(O)CCc1cc(-c2ccc(OC(F)(F)F)cc2)ccc1OCCCc1ccccc1` [Compound 101], the “Inhibition Rate of PAI-1 Activity (%)” value was 42% (Compound Concentration 5 μM), 73% (Compound Concentration 10 μM) and greater than 99% (Compound Concentration 25 μM).

With `O=C(O)CCc1cc(-c2ccc(OC(F)(F)F)cc2)ccc1OCCCOc1ccccc1` [Compound 103], the “Inhibition Rate of PAI-1 Activity (%)” value came out at 33% (Compound Concentration 5 μM), 57% (Compound Concentration 10 μM) and 89% (Compound Concentration 25 μM).

On to `O=C(O)CCc1cc(-c2ccc(OC(F)(F)F)cc2)ccc1OCCCCCc1ccccc1` [Compound 104], for which the “Inhibition Rate of PAI-1 Activity (%)” value is reported as 47% (Compound Concentration 5 μM), 77% (Compound Concentration 10 μM) and 96% (Compound Concentration 25 μM).

For the molecule `CC(C)(C)c1ccc(COc2ccc(-c3ccc(OC(F)(F)F)cc3)cc2COCC(=O)O)cc1` [Compound 107], the “Inhibition Rate of PAI-1 Activity (%)” value amounted to 48% (Compound Concentration 5 μM), 85% (Compound Concentration 10 μM) and 97% (Compound Concentration 25 μM).

Consider `CC(C)(C)c1ccc(COc2ccc(-c3ccc(OC(F)(F)F)cc3)cc2OCCCC(=O)O)cc1` [Compound 109], for which the “Inhibition Rate of PAI-1 Activity (%)” value reads like this: (Compound Concentration 5 μM) 24%; (Compound Concentration 10 μM) 50%; (Compound Concentration 25 μM) 96%.

`CC(C)(Oc1ccc(-c2ccc(OC(F)(F)F)cc2)cc1Oc1ccc(C(C)(C)C)cc1)C(=O)O` [Compound 110]: the “Inhibition Rate of PAI-1 Activity (%)” value is on record as 37% (Compound Concentration 5 μM), 51% (Compound Concentration 10 μM) and 83% (Compound Concentration 25 μM).

On to `CC(C)(OCc1ccc(-c2ccc(OC(F)(F)F)cc2)cc1Oc1ccc(C(C)(C)C)cc1)C(=O)O` [Compound 111], for which the “Inhibition Rate of PAI-1 Activity (%)” value (Compound Concentration 5 μM) is reported as 55%, the “Inhibition Rate of PAI-1 Activity (%)” value (Compound Concentration 10 μM) stood at 88% and the “Inhibition Rate of PAI-1 Activity (%)” value (Compound Concentration 25 μM) was 94%.

With `CCC(Oc1ccc(-c2ccc(OC(F)(F)F)cc2)cc1Oc1ccc(C(C)(C)C)cc1)C(=O)O` (centres unmarked) [Compound 114], the “Inhibition Rate of PAI-1 Activity (%)” value came out at 64% (Compound Concentration 5 μM), 87% (Compound Concentration 10 μM) and 95% (Compound Concentration 25 μM).

Regarding `O=C(O)COc1cc(-c2ccc(OC(F)(F)F)cc2)ccc1OCCCCc1ccccc1` [Compound 115], the “Inhibition Rate of PAI-1 Activity (%)” value is, setting by setting: (Compound Concentration 5 μM) 34%; (Compound Concentration 10 μM) 59%; (Compound Concentration 25 μM) 90%.

Take `CC(C)(C)c1ccc(Oc2cc(-c3ccc(OC(F)(F)F)cc3)ccc2OC(F)C(=O)O)cc1` (centres unmarked) [Compound 119]: the “Inhibition Rate of PAI-1 Activity (%)” value is given as 75% (Compound Concentration 5 μM), 93% (Compound Concentration 10 μM) and 99% (Compound Concentration 25 μM).

With `CC(C)(C)c1ccc(Oc2cc(-c3ccc(OC(F)(F)F)cc3)ccc2OC(F)(F)C(=O)O)cc1` [Compound 120], the “Inhibition Rate of PAI-1 Activity (%)” value is listed as 59% (Compound Concentration 5 μM), 87% (Compound Concentration 10 μM) and 98% (Compound Concentration 25 μM).

For the molecule `CC(C)(C)c1ccc(COc2ccc(-c3ccc(OC(F)(F)F)cc3)cc2OCc2nnn[nH]2)cc1` [Compound 122], the “Inhibition Rate of PAI-1 Activity (%)” value by setting is: (Compound Concentration 5 μM) 29%; (Compound Concentration 10 μM) 63%; (Compound Concentration 25 μM) 99%.

For `Cc1cc(C)cc(CN(C(=O)C(=O)O)c2ccc(-c3ccc(OC(F)(F)F)cc3)cc2)c1` [Compound 123], the “Inhibition Rate of PAI-1 Activity (%)” value (Compound Concentration 5 μM) was found to be 27% and the “Inhibition Rate of PAI-1 Activity (%)” value (Compound Concentration 10 μM) was found to be 62%.

For the molecule `O=C(O)C(=O)N(Cc1ccc(Cl)cc1)c1ccc(-c2ccc(OC(F)(F)F)cc2)cc1` [Compound 124], the “Inhibition Rate of PAI-1 Activity (%)” value was 22% (Compound Concentration 5 μM) and 49% (Compound Concentration 10 μM).

Regarding `Cc1cccc(CN(C(=O)C(=O)O)c2ccc(-c3ccc(OC(F)(F)F)cc3)cc2)c1` [Compound 125], the “Inhibition Rate of PAI-1 Activity (%)” value is, setting by setting: (Compound Concentration 5 μM) 15%; (Compound Concentration 10 μM) 31%.

As to `COc1ccc(-c2ccc(N(Cc3ccc(C(C)(C)C)cc3)C(=O)C(=O)O)cc2)cc1` [Compound 126], the “Inhibition Rate of PAI-1 Activity (%)” value by setting is: (Compound Concentration 5 μM) 16%; (Compound Concentration 10 μM) 43%.

`CC(C)(C)c1ccc(CN(C(=O)C(=O)O)c2ccc(-c3ccc(F)cc3)cc2)cc1` [Compound 127]: the “Inhibition Rate of PAI-1 Activity (%)” value was 21% (Compound Concentration 5 μM) and 43% (Compound Concentration 10 μM).

Regarding `CC(C)(C)c1ccc(N(C(=O)C(=O)O)c2ccc(-c3ccc(OC(F)(F)F)cc3)cc2)cc1` [Compound 128], the “Inhibition Rate of PAI-1 Activity (%)” value runs as follows: (Compound Concentration 5 μM) 58%; (Compound Concentration 10 μM) 89%.

Regarding `COc1ccc(CN(C(=O)C(=O)O)c2ccc(-c3ccc(OC(F)(F)F)cc3)cc2)cc1` [Compound 131], the “Inhibition Rate of PAI-1 Activity (%)” value is, setting by setting: (Compound Concentration 10 μM) 10%; (Compound Concentration 25 μM) 34%.

As to `CC(C)(C)c1ccc(CN(C(=O)C(=O)O)c2ccc(Oc3ccc(OC(F)(F)F)cc3)cc2)cc1` [Compound 132], the “Inhibition Rate of PAI-1 Activity (%)” value was 32% (Compound Concentration 10 μM) and 82% (Compound Concentration 25 μM).

Regarding `CC(C)(C)c1ccc(CN(C(=O)C(=O)O)c2ccc(-c3ccc(OC(F)(F)F)cc3)cc2)cc1` [Compound 133], the “Inhibition Rate of PAI-1 Activity (%)” value (Compound Concentration 5 μM) was found to be 80% and the “Inhibition Rate of PAI-1 Activity (%)” value (Compound Concentration 10 μM) was found to be 92%.

Consider `CSc1ccc(-c2ccc(N(Cc3ccc(C(C)(C)C)cc3)C(=O)C(=O)O)cc2)cc1` [Compound 134], for which the “Inhibition Rate of PAI-1 Activity (%)” value is on record as 14% (Compound Concentration 10 μM) and 75% (Compound Concentration 25 μM).

As to `CC(C)(C)c1ccc(CN(C(=O)C(=O)O)c2ccc(-c3ccc(Cl)cc3)cc2)cc1` [Compound 135], the “Inhibition Rate of PAI-1 Activity (%)” value is given as 6% (Compound Concentration 10 μM) and 67% (Compound Concentration 25 μM).

As to `Cc1ccc(-c2ccc(OC(F)(F)F)cc2)cc1N(Cc1ccc(C(C)(C)C)cc1)C(=O)C(=O)O` [Compound 136], the “Inhibition Rate of PAI-1 Activity (%)” value reads like this: (Compound Concentration 5 μM) 16%; (Compound Concentration 10 μM) 47%; (Compound Concentration 25 μM) 79%.

For the molecule `Cc1ccc(-c2ccccc2)cc1N(Cc1ccc(C(C)(C)C)cc1)C(=O)C(=O)O` [Compound 137], the “Inhibition Rate of PAI-1 Activity (%)” value by setting is: (Compound Concentration 10 μM) 5%; (Compound Concentration 25 μM) 61%.

Take `Cc1ccc(-c2cccc([N+](=O)[O-])c2)cc1N(Cc1ccc(C(C)(C)C)cc1)C(=O)C(=O)O` [Compound 138]: the “Inhibition Rate of PAI-1 Activity (%)” value is, setting by setting: (Compound Concentration 10 μM) 4%; (Compound Concentration 25 μM) 61%.

As for `CC(C)(C)c1ccc(CN(C(=O)C(=O)O)c2cc(-c3ccccc3)cc(C(F)(F)F)c2)cc1` [Compound 140], the “Inhibition Rate of PAI-1 Activity (%)” value reads like this: (Compound Concentration 5 μM) 6%; (Compound Concentration 10 μM) 31%; (Compound Concentration 25 μM) 77%.

As to `Cc1ccc(-c2ccc(N(Cc3ccc(C(C)(C)C)cc3)C(=O)C(=O)O)cc2)cc1` [Compound 141], the “Inhibition Rate of PAI-1 Activity (%)” value is 5% (Compound Concentration 10 μM) and 52% (Compound Concentration 25 μM).

Turning to `CC(C)(C)c1ccc(CN(C(=O)C(=O)O)c2ccc(-c3cccc([N+](=O)[O-])c3)cc2)cc1` [Compound 142], the “Inhibition Rate of PAI-1 Activity (%)” value runs as follows: (Compound Concentration 10 μM) 3%; (Compound Concentration 25 μM) 33%.

`Cc1ccc(CN(C(=O)C(=O)O)c2ccc(-c3ccc(OC(F)(F)F)cc3)cc2)cc1` [Compound 143]: the “Inhibition Rate of PAI-1 Activity (%)” value reads like this: (Compound Concentration 10 μM) 1%; (Compound Concentration 25 μM) 22%.

For the molecule `O=C(O)C(=O)N(Cc1ccc(Cl)cc1Cl)c1ccc(-c2ccc(OC(F)(F)F)cc2)cc1` [Compound 144], the “Inhibition Rate of PAI-1 Activity (%)” value is, setting by setting: (Compound Concentration 5 μM) 3%; (Compound Concentration 10 μM) 22%; (Compound Concentration 25 μM) 76%.

With `CC(C)(C)c1ccc(CN(C(=O)C(=O)O)c2ccc(-c3ccc(C(F)(F)F)cc3)cc2)cc1` [Compound 145], the “Inhibition Rate of PAI-1 Activity (%)” value is 7% (Compound Concentration 5 μM), 35% (Compound Concentration 10 μM) and 74% (Compound Concentration 25 μM).

For `Cc1cc(-c2ccc(OC(F)(F)F)cc2)ccc1N(Cc1ccc(C(C)(C)C)cc1)C(=O)C(=O)O` [Compound 146], the “Inhibition Rate of PAI-1 Activity (%)” value (Compound Concentration 5 μM) is 33%, the “Inhibition Rate of PAI-1 Activity (%)” value (Compound Concentration 10 μM) worked out at 73% and the “Inhibition Rate of PAI-1 Activity (%)” value (Compound Concentration 25 μM) is 90%.

Regarding `CC(C)(C)c1ccc(CN(C(=O)C(=O)O)c2ccccc2-c2ccc(OC(F)(F)F)cc2)cc1` [Compound 148], the “Inhibition Rate of PAI-1 Activity (%)” value was found to be 17% (Compound Concentration 5 μM), 55% (Compound Concentration 10 μM) and 98% (Compound Concentration 25 μM).
